# Measured values taken from patent US20130183268A1, “DRUG COMBINATIONS WITH FLUORO-SUBSTITUTED OMEGA-CARBOXYARYL DIPHENYL UREA FOR THE TREATMENT AND PREVENTION OF DISEASES AND CONDITIONS” (BAYER HEALTHCARE LLC, priority 2010, published 2013).
# Test system: MDA MB-231 human breast carcinoma cells
# Test: MDA-MB231 proliferation assay
# Format: cell-based
# Method: Human breast carcinoma cells (MDA MB-231, NCI) were cultured in standard growth medium (DMEM) supplemented with 10% heat-inactivated FBS at 37° C. in 5% CO2 (vol/vol) in a humidified incubator. Cells were plated at a density of 3000 cells per well in 90 μL growth medium in a 96 well culture dish. In order to determine T0h CTG values, 24 hours after plating, 100 μL of CellTiter-Glo Luminescent Reagent (Promega) was added to each well and incubated at room temperature for 30 minutes. Luminescence was recorded on a Wallac Victor II instrument. […]
# Test compounds are dissolved in 100% DMSO to prepare 10 mM stocks. […] The cells with and without individual test compounds were incubated for 72 hours at which time ATP dependent luminescence was measured, as described previously, to yield T72h values. Optionally, the IC50 values can be determined with a least squares analysis program using compound concentration versus percent inhibition.
# % Inhibition=[1−(T72h test−T0h)/(T72h ctrl−T0h)]×100, where • T72h test=ATP dependent luminescence at 72 hours in the presence of test compound • T72h ctrl=ATP dependent luminescence at 72 hours in the absence of test compound • T0h=ATP dependent luminescence at Time Zero
structure (smiles),measurement,setting,value
"CNC(=O)c1cc(Oc2ccc(NC(=O)Nc3ccc(Cl)c(C(F)(F)F)c3)c(F)c2)ccn1 [Example 1, 4{4-[3-(4-chloro-3-trifluoromethylphenyl)-ureido]-3-fluorophenoxy}-pyridine-2-carboxylic acid methylamide]",IC50,"Homo sapiens, MDA-MB-231 cells, 72 hours",600 nM
same,inhibition of proliferation,in words,significant inhibition
